Target: T1, YjgB (ECL_RS22935), alcohol dehydrogenase (Enterobacter cloacae, UniProt A0A0H3CR94)
T1 construct: gene ECL_04598; full-length ORF in pET-28a(+), His-tag fusion, E. coli BL21(DE3) with ZnCl2, HisTrap
Experiment: HPLC product formation assay
Type: biochemical
Settings: 200 uM substrate, 0.2 mM NADPH, 50 mM Tris-HCl, pH 8.0, 37 °C, 10 uM enzyme

T1 sequence (A0A0H3CR94 entry or part of it): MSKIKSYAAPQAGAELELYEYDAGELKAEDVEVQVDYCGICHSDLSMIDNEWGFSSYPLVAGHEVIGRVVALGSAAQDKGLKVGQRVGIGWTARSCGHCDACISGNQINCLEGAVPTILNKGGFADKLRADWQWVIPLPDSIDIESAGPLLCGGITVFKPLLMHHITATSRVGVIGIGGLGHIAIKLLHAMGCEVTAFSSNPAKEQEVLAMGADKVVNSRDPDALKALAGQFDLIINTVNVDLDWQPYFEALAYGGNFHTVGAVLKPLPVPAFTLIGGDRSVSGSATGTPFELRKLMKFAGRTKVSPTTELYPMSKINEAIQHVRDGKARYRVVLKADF

Compound | HPLC product formation assay
O=CCc1c[nH]c2ccccc12 [indole-3-acetaldehyde] | In vitro enzymatic assays demonstrated that YjgB directly catalyzed the conversion of indole-3-acetaldehyde to indole-3-ethanol
OCCc1c[nH]c2ccccc12 [indole-3-ethanol] | YjgB directly catalyzed the conversion of indole-3-acetaldehyde to indole-3-ethanol

Reference: PMC12175533, “A cell-cell communication signal from Enterobacter cloacae interfering with the signaling systems and virulence in Shigella sonnei” (Applied and Environmental Microbiology, 2025)
